Data: ChEMBL document CHEMBL5620385, “Orally bioavailable styryl derivative of rohitukine-N-oxide inhibits CDK9/T1 and the growth of pancreatic cancer cells” (Eur J Med Chem, 2023)

Tests used:
CDK9/Cyclin K = CDK9/Cyclin K (Homo sapiens, UniProt P50750); experiment: Inhibition of CDK9/cyclin K (unknown origin) by ADP-Glo assay; type: protein-complex assay
HCT-116 [1] = experiment: Antiproliferative activity against human HCT-116 cells assessed as cell growth inhibition incubated for 48 hrs by MTT assay; type: functional
CDK9/cyclin T1 = CDK9/cyclin T1 (Homo sapiens, UniProt P50750); experiment: Inhibition of CDK9/cyclin T1 (unknown origin) by ADP-Glo assay; type: protein-complex assay
Sequence of CDK9/cyclin T1 (O60563 whole entry): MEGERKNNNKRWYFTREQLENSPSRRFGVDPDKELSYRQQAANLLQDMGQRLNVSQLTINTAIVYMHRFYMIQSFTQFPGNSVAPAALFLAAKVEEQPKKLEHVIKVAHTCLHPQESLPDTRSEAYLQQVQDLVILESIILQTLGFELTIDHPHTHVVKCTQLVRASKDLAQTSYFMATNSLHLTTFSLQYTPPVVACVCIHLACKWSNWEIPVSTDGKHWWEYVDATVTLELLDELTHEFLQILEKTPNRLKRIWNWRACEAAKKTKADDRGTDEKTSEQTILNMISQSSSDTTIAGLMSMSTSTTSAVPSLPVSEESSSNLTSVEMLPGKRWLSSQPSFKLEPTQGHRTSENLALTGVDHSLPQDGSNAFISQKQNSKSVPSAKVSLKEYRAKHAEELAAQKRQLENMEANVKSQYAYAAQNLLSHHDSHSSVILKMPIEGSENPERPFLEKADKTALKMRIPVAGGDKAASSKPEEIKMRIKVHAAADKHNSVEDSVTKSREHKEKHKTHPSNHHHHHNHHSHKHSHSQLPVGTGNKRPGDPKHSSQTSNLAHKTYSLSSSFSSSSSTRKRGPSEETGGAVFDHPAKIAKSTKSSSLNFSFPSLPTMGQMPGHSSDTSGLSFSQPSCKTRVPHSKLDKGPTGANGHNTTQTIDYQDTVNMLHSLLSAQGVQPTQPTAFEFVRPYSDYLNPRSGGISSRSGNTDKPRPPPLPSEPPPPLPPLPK
Sequence of CDK9/cyclin T1 (P50750 whole entry): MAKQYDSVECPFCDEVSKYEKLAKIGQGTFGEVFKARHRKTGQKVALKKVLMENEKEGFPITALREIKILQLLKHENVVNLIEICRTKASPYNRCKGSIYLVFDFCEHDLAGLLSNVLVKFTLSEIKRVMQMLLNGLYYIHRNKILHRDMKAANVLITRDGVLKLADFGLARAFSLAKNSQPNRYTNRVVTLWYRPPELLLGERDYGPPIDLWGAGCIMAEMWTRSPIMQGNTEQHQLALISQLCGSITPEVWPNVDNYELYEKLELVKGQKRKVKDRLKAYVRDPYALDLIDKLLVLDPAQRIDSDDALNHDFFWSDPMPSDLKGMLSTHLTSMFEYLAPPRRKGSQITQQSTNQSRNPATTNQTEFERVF

[2] = Volume of distribution in BALB/c mouse at 30 mg/kg, po measured for 6 hrs by LC-MS/MS analysis; type: ADME, organism-based; settings: in vivo
MIA PaCa-2 [3] = experiment: Antiproliferative activity against human MIA PaCa-2 cells assessed as cell growth inhibition incubated for 48 hrs by MTT assay; type: functional
MIA PaCa-2 [4] = experiment: Induction of apoptosis in human MIA PaCa-2 cells assessed as chromatin condensation incubated for 48 hrs by DAPI staining based analysis; type: functional, cell-based
[5] = Metabolic stability in human liver microsomes assessed as drug metabolism at 10 uM measured after 30 mins in presence of NADPH by HPLC analysis; type: ADME, Microsome; settings: read-out: Drug metabolism
[6] = biological target: Cyclin-dependent kinase 7/ cyclin H (Homo sapiens, UniProt P50613); experiment: Inhibition of CDK7/cyclin H (unknown origin) by ADP-Glo assay; type: protein-complex assay
Sequence of Cyclin-dependent kinase 7/ cyclin H (P51946 whole entry): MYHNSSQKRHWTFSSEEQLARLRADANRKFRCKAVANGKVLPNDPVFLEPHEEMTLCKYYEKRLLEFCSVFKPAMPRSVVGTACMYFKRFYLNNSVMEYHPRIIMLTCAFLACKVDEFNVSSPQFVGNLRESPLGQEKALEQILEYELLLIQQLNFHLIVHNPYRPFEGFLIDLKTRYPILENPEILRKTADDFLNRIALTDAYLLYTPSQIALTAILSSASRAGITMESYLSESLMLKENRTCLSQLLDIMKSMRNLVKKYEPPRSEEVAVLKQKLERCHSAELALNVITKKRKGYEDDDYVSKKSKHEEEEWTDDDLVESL
Sequence of Cyclin-dependent kinase 7/ cyclin H (P50613 whole entry): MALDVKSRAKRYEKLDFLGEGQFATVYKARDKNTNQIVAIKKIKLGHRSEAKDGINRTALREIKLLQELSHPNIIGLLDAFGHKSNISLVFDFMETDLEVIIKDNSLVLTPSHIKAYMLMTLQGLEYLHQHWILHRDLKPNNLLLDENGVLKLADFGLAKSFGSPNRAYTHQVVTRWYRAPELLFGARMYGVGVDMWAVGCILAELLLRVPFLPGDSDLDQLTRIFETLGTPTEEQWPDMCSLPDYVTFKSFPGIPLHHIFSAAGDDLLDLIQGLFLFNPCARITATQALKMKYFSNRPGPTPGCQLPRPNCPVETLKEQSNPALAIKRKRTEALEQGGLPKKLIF

HCT-116 [7] = experiment: Antiproliferative activity against human HCT-116 cells assessed as cell growth inhibition at 10 uM incubated for 48 hrs by MTT assay relative to control; type: functional
[8] = Antiproliferative activity against HEK293 cells assessed as cell growth inhibition at 10 uM incubated for 48 hrs by MTT assay relative to control; type: toxicity, cell-based; settings: human
[9] = Cmax in BALB/c mouse at 30 mg/kg, po measured for 6 hrs by LC-MS/MS analysis; type: ADME, organism-based; settings: in vivo
[10] = AUC(0 to t) in BALB/c mouse at 5 mg/kg, iv measured for 6 hrs by LC-MS/MS analysis; type: ADME, organism-based; settings: in vivo
[11] = C0 in BALB/c mouse at 5 mg/kg, iv measured for 6 hrs by LC-MS/MS analysis; type: ADME, organism-based; settings: in vivo
[12] = Tmax in BALB/c mouse at 30 mg/kg, po measured for 6 hrs by LC-MS/MS analysis; type: ADME, organism-based; settings: in vivo
[13] = AUC(0 to infinity) in BALB/c mouse at 30 mg/kg, po measured for 6 hrs by LC-MS/MS analysis; type: ADME, organism-based; settings: in vivo
[14] = Clearance in BALB/c mouse at 5 mg/kg, iv measured for 6 hrs by LC-MS/MS analysis; type: ADME, organism-based; settings: in vivo
[15] = biological target: CDK9/Cyclin K (Homo sapiens) (UniProt P50750+O75909); experiment: Inhibition of CDK9/cyclin K (unknown origin) at 10 uM by ADP-Glo assay relative to control; type: protein-complex assay
MIA PaCa-2 [16] = experiment: Induction of intracellular ROS generation in human MIA PaCa-2 cells incubated for 48 hrs by DCFDA dye based analysis; type: functional, cell-based
[17] = Half life in BALB/c mouse at 30 mg/kg, po measured for 6 hrs by LC-MS/MS analysis; type: ADME, organism-based; settings: in vivo
[18] = Clearance in BALB/c mouse at 30 mg/kg, po measured for 6 hrs by LC-MS/MS analysis; type: ADME, organism-based; settings: in vivo
MIA PaCa-2 [19] = experiment: Antiproliferative activity against human MIA PaCa-2 cells assessed as cell growth inhibition at 10 uM incubated for 48 hrs by MTT assay relative to control; type: functional
[20] = Volume of distribution in BALB/c mouse at 5 mg/kg, iv measured for 6 hrs by LC-MS/MS analysis; type: ADME, organism-based; settings: in vivo
[21] = biological target: Cyclin-dependent kinase 7/ cyclin H (Homo sapiens) (UniProt P51946+P50613); experiment: Inhibition of CDK7/cyclin H (unknown origin) at 10 uM by ADP-Glo assay relative to control; type: protein-complex assay
[22] = Metabolic stability in mouse liver microsomes assessed as drug metabolism at 10 uM measured after 30 mins in presence of NADPH by HPLC analysis; type: ADME, Microsome; settings: read-out: Drug metabolism
[23] = AUC(0 to t) in BALB/c mouse at 30 mg/kg, po measured for 6 hrs by LC-MS/MS analysis; type: ADME, organism-based; settings: in vivo
[24] = AUC(0 to infinity) in BALB/c mouse at 5 mg/kg, iv measured for 6 hrs by LC-MS/MS analysis; type: ADME, organism-based; settings: in vivo
[25] = Antiproliferative activity against HEK293 cells assessed as cell growth inhibition incubated for 48 hrs by MTT assay; type: toxicity, cell-based; settings: human
MIA PaCa-2 [26] = experiment: Induction of mitochondrial membrane potential loss in human MIA PaCa-2 cells incubated for 48 hrs by Rhodamine-123 dye based analysis; type: functional, cell-based
[27] = Half life in BALB/c mouse at 5 mg/kg, iv measured for 6 hrs by LC-MS/MS analysis; type: ADME, organism-based; settings: in vivo
MIA PaCa-2 [28] = experiment: Induction of apoptosis in human MIA PaCa-2 cells assessed as apoptotic body formation incubated for 48 hrs by DAPI staining based analysis; type: functional, cell-based

Sequence of CDK9/Cyclin K (P50750 whole entry): as the sequence (P50750 whole entry) above
Sequence of CDK9/Cyclin K (O75909 whole entry, further chain): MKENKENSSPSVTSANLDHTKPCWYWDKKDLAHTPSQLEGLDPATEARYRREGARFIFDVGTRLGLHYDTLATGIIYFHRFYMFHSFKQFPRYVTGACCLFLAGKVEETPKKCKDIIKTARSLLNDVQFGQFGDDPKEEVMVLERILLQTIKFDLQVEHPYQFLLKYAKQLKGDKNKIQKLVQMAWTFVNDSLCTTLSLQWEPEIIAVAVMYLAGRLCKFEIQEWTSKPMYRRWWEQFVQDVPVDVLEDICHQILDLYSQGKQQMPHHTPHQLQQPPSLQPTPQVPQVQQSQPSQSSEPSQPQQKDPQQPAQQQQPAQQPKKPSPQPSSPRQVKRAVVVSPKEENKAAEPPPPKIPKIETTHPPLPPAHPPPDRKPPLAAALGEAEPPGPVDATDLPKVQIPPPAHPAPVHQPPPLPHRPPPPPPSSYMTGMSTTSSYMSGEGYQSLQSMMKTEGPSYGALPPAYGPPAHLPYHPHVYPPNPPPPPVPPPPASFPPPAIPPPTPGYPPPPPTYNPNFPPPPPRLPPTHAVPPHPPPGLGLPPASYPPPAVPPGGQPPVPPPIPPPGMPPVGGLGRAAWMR

COc1cc(O)c2c(=O)cc(/C=C/c3c(F)cccc3Cl)oc2c1[C@H]1CC[N+](C)([O-])C[C@H]1O (stereo not given in full)
IC50 (CDK9/Cyclin K): 2280 nM
GI50 (HCT-116 [1]): 2530 nM
IC50 (CDK9/cyclin T1): 150 nM
Vd [2]: 17 L/kg
GI50 (MIA PaCa-2 [3]): 5530 nM
Activity (MIA PaCa-2 [4]): Dose-Dependent Effect
metabolised at 0.5 h, 10 µM [5]: 16%
IC50 [6]: 540 nM
inhibition at 10 µM (HCT-116 [7]): 25.2%
inhibition at 48 h, 10 µM [8]: 14.9%
Cmax [9]: 817 ng/mL
AUC(0-t) at 6 h [10]: 956 ng·h/mL
C0 at 6 h [11]: 19100 ng/mL
Tmax [12]: 30 min
AUC(0-inf) [13]: 401 ng·h/mL
clearance [14]: 86.7 mL/min/kg
inhibition [15]: 41.7%
Activity (MIA PaCa-2 [16]): Dose-Dependent Effect
half-life [17]: 9.6 min
CL/F [18]: 1250 mL/min/kg
inhibition at 10 µM (MIA PaCa-2 [19]): 24.9%
Vd [20]: 0.8 L/kg
inhibition [21]: 28.7%
metabolised at 0.5 h, 10 µM [22]: 16%
AUC(0-t) at 6 h [23]: 400 ng·h/mL
AUC(0-inf) [24]: 957 ng·h/mL
GI50 at 48 h [25]: 81500 nM
Activity (MIA PaCa-2 [26]): Dose-Dependent Effect
half-life [27]: 6 min
Activity (MIA PaCa-2 [28]): Dose-Dependent Effect
